The test concerns the target recombinant human dual expressed Avi PRMT5/His-MEP50 protein (Homo sapiens (Human), UniProt O14744). As to the kind of experiment: HTRF binding assay in presence of MTA. As to conditions: 30 μM MTA. On the procedure:
The PRMT5 binding activity of compounds of the present invention was determined using an HTRF binding assay or SPR assay.
A recombinant human dual expressed Avi PRMT5/His-MEP50) protein (corresponding to amino acids for PRMT5 2-637, and 2-342 for MEP50 expressed in baculovirus) was incubated with target fragments in final buffer (25 mM ADA pH 7.2, 30 μM MTA, 1 mM TCEP, 50 mM NaCl, 0.002% Tween, 5 nM proprietary Tracer binding compound prepared in-house), overnight at 2-8° C. After overnight incubation the binding is monitored after the addition of 0.5 nM Anti-His-Tb (Cisbio) after 1 hr incubation at RT (˜20-24 hrs total binding time). The HTRF signal was measured using a Clariostar reader (BMG) excitation filter (Ex Tr), dichroic filter (LP TP) and emission filters (F 665-10 and F 620-10) manufacturer's instructions. The HTRF ratio was calculated using the formula: [emission 665/emission 620]*10000.
A general note: Time-resolved FRET reads energy transfer from a long-lived donor to a nearby acceptor.

Results on 22 molecules are retold here after patent US20240368153A1, “Aminopyridine-based MTA-Cooperative PRMT5 Inhibitors” (Mirati Therapeutics, Inc., priority 2021, published 2024).

recombinant human dual expressed Avi PRMT5/His-MEP50 protein, sequence (O14744 2-637): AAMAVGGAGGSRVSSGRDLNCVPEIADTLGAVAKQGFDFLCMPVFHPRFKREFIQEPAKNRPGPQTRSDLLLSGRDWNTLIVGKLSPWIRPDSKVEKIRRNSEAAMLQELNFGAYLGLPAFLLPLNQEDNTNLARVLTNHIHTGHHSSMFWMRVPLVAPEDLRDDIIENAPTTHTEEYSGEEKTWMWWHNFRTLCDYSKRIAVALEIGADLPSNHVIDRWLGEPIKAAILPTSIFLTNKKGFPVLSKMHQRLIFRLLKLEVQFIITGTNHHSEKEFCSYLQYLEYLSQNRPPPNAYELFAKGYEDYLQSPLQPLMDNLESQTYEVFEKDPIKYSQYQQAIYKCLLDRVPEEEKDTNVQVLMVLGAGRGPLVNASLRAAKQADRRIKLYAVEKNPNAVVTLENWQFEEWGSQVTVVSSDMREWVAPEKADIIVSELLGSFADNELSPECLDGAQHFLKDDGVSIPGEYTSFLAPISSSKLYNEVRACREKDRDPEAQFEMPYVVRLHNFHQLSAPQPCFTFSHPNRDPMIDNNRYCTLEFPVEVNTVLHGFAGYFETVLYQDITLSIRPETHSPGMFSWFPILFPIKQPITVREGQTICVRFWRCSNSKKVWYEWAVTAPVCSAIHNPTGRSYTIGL
recombinant human dual expressed Avi PRMT5/His-MEP50 protein, sequence (Q9BQA1 2-342 partner): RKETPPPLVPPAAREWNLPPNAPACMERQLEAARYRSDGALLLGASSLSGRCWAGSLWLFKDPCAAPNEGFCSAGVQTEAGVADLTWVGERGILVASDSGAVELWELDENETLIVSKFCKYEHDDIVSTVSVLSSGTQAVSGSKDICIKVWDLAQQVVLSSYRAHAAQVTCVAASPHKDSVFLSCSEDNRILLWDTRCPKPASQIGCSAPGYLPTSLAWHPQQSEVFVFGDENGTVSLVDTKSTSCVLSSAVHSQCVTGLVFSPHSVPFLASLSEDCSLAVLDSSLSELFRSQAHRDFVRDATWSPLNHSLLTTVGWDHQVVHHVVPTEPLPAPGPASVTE

For `Cc1cc(N)nc2cc(-c3ccccc3)cnc12` [Example 1-1, 4-methyl-7-phenyl-1,5-naphthyridin-2-amine], the IC50 (usually the concentration at which inhibition is half-maximal) turned out to be 17.2 µM. The value for `Cc1cc(N)nc2cc(-c3ccccn3)cnc12` [Example 1-2, 4-methyl-7-(pyridin-2-yl)-1,5-naphthyridin-2-amine] was 82 µM; that for `Cc1cc(N)nc2cc(-c3cccnc3)cnc12` [Example 1-3, 4-methyl-7-(pyridin-3-yl)-1,5-paphthyridin-2-amine] was 2.08 µM; that for `Cc1cc(N)nc2cc(-c3cccnn3)cnc12` [Example 1-4, 4-methyl-7-(pyridazin-3-yl)-1,5-naphthyridin-2-amine] was 7.46 µM. Take `Cc1cc(N)nc2cc(-c3ccsn3)cnc12` [Example 1-5, 7-(isothiazol-3-yl)-4-methyl-1,5-naphtbyridin-2-amine]: the IC50 stood at 55.5 µM. Take `Cc1cc(N)nc2cc(-c3cncs3)cnc12` [Example 1-6, 4-methyl-7-(thiazol-5-yl)-1,5-naphthyridin-2-amine]: the IC50 was 51 µM. Next, `Cc1cc(N)nc2cc(-c3cnn(C)c3)cnc12` [Example 1-7, 4-methyl-7-(1-methyl-1H-pyrazol-4-yl)-1,5-naphthyridin-2-amine]: 7.92 µM; `Cc1cc(N)nc2cc(Cc3ccccc3)cnc12` [Example 2-1, 7-benzyl-4-methyl-1,5-naphthyridin-2-amine]: 6.64 µM. For `Cc1ccccc1Cc1cnc2c(C)cc(N)nc2c1` [Example 2-5, 4-methyl-7-(2-methylbenzyl)-1,5-naphtbyridin-2-amine], the IC50 turned out to be 8.83 µM. As for `Cc1cc(N)nc2cc(Cc3ccccn3)cnc12` [Example 2-6, 4-methyl-7-(2-pyridylmethyl)-1,5-naphthyridin-2-amine], the IC50 turned out to be 2.85 µM. `Cc1cc(N)nc2cc(Cc3ccncc3)cnc12` [Example 2-8, 4-methyl-7-(4-pyridylmethyl)-1,5-naphthyridin-2-amine]: the IC50 was 35.5 µM. For `Cc1cc(N)nc2cc(Cc3cscn3)cnc12` [Example 2-10, 4-methyl-7-(thiazol-4-ylmethyl)-1,5-naphthyridin-2-amine], the IC50 was found to be 2.14 µM. In the case of `Cc1cc(N)nc2cc(Oc3ccccc3)cnc12` [Example 3-1, 4-methyl-7-phenoxy-1,5-naphthyridin-2-amine], the IC50 turned out to be 8.99 µM. On to `Cc1cc(N)nc2cc(Oc3ccccc3F)cnc12` [Example 3-2, 7-(2-fluorophenoxy)-4-methyl-1,5-naphthyridin-2-amine], for which the IC50 came to 5.11 µM.

For `Cc1cc(N)nc2cc(Oc3ccccc3Cl)cnc12` [Example 3-3, 7-(2-chlorophenoxy)-4-methyl-1,5-naphthyridin-2-amine], the IC50 amounted to 4.8 µM.

In the case of `Cc1cc(N)nc2cc(Oc3ccccc3C#N)cnc12` [Example 3-4, 2-((6-amino-8-methyl-1,5-naphthyridin-3-yl)oxy)benzonitrile], the IC50 came to 33.9 µM. With `Cc1ccccc1Oc1cnc2c(C)cc(N)nc2c1` [Example 3-5, 4-methyl-7-(2-methylphenoxy)-1,5-naphtbyridin-2-amine], the IC50 was 39.6 µM.

As to `Cc1cc(N)nc2cc(Oc3ccccn3)cnc12` [Example 3-6, 4-methyl-7-(pyridin-2-yloxy)-1,5-naphthyridin-2-amine], the IC50 was determined as 40.6 µM. The value for `Cc1cc(N)nc2cc(Oc3ccncc3)cnc12` [Example 3-8, 4-methyl-7-(pyridin-4-yloxy)-1,5-naphtbyridin-2-amine] was 84 µM; that for `Cc1cc(N)nc2ccc(-c3ccccn3)nc12` [Example 4-2, 4-methyl-6-(2-pyridyl)-1,5-naphthyridin-2-amine] was 13.9 µM.

Turning to `Cc1cc(N)nc2ccc(-c3cccnc3)nc12` [Example 4-3, 4-methyl-6-(3-pyridyl)-1,5-naphthyridin-2-amine], the IC50 stood at 23.9 µM. Consider `Cc1cc(N)nc2ccc(-c3cncs3)nc12` [Example 4-4, 4-methyl-6-thiazol-5-yl-1,5-naphthyridin-2-amine], for which the IC50 was found to be 29.6 µM.
